Data as given in the SangsterLogP compilation.

Experiment: method code SF-AS, from DOI: 10.1021/jm00294a001, PMID: 5116225
C=C(C)C(=O)O[C@H]1CC2=C[C@@H](C[C@@]3(C)O[C@@H]3[C@H]3OC(=O)C(=C)[C@@H]31)OC2=O showed a logP of 0.69.
With C=C[C@@]12COC(=O)C(=C)[C@@H]1[C@H]1OC(=O)C(=C)[C@@H]1[C@@H](O)C2 the logP was 0.31.
C=C[C@@]12COC(=O)C(=C)[C@@H]1[C@H]1OC(=O)C(=C)[C@@H]1[C@@H](OC(=O)C(=C)C)C2 gave a logP of 1.56.
Molecule C=C1C(=O)OC2C1CCC(C)C1(O)C=CC(=O)C21C (centres undefined) has a logP of 0.77.
C=CC12COC(=O)C(=C)C1C(OC(C)=O)C1C(=C)C(=O)OC1C2 (centres undefined) gave a logP of 0.25.
Molecule C=C1C(=O)O[C@@H]2C[C@@H](C)[C@@H]3C=CC(=O)[C@@]3(C)[C@@H](O)[C@H]12 has a logP of 0.87.
C=C1C(=O)O[C@H]2[C@H]1[C@@H](OC(=O)C=C(C)C)CC1=C[C@@H](C[C@@]3(C)O[C@H]23)OC1=O showed a logP of 1.05.
In the case of C=C1C(=O)O[C@@H]2[C@H]1CC[C@H](C)[C@]1(O)CCC(=O)[C@@]21C, the logP is reported as 0.83.
Molecule C=CC12COC(=O)C(=C)C1C1OC(=O)C(=C)C1C(OC(C)=O)C2 (centres undefined) has a logP of 0.79.
Molecule C=C1C(=O)OC2C=C(C)C3C(OC(C)=O)CC(O)C3CC12 (centres undefined) has a logP of 1.09.
C=C1C(=O)O[C@H]2C[C@@H](C)[C@@H]3C=CC(=O)[C@@]3(C)C[C@H]12 showed a logP of 1.17.
For C=C1C(=O)OC2C=C(C)C(O)CC=C(C)CCC12 (centres undefined), the logP was 1.4.
C=C1C(=O)O[C@@H]2[C@H]1CC[C@H](C)[C@@H]1C[C@@H](O)C(=O)[C@@]21C gave a logP of 0.66.
In the case of C=C1C(=O)OC2CC(C)=CCC(OC(C)=O)C(C)=CC(OC(C)=O)C12 (centres undefined), the logP is reported as 1.14.
With C=C1C(=O)O[C@H]2[C@H]1[C@H](OC(=O)/C(C)=C\C)C[C@]1(CO1)[C@@H]1[C@H](OC(C)=O)C=C(C)[C@]21O the logP was 0.76.
For C=CC12COC(=O)C(=C)C1C(O)C1C(=C)C(=O)OC1C2 (centres undefined), the logP was -0.14.
In the case of C=C1C(=O)OC2C1C(OC(=O)C(C)=CC)CC(=C)C1C(O)C3OC3(C)C21O (centres undefined), the logP is reported as 1.69.
For C=C1C(=O)OC2C1CCC(C)C1C=CC(=O)C12C (centres undefined), the logP was 1.03.
Work on C=C1C(=O)O[C@H]2CC3=C[C@@H](C[C@@]4(C)O[C@@H]4[C@@H](O)[C@H]12)OC3=O yielded a logP of -0.64.
Molecule C=C1C(=O)OC2C=C(C)C(OC(C)=O)CC(O)C(C)=CC(OC(=O)C(C)=CC)C12 (centres undefined) has a logP of 1.16.
C=C1C(=O)OC2C1C(OC(=O)C(C)=CC)CC(O)(CCl)C1C(OC(C)=O)C=C(C)C21O (centres undefined) showed a logP of 1.42.
C=C1C(=O)OC2C=C(C)C3(O)C=CC(C)(CC(OC(=O)C(=CC)COC(C)=O)C12)O3 (centres undefined) showed a logP of 1.19.
In the case of C=C1C(=O)O[C@@H]2/C=C(/C)C[C@H](O)/C=C(/C)CC[C@@H]12, the logP is reported as 1.23.
With C=C1C(=O)OC2C1C(O)CC(C)C1CCC(=O)C12C (centres undefined) the logP was 0.23.
